{"source": "paper PMC5913971", "about": "“A Novel Piperazine-Based Drug Lead for Cryptosporidiosis from the Medicines for Malaria Venture Open-Access Malaria Box” (Antimicrobial Agents and Chemotherapy, 2018)", "key": {"[1]": {"system": "HCT-8 cells", "test": "Host cell toxicity assay (CellTiter AQueous)", "type": "cell-based, Human", "protocol": "Host cell toxicity was measured as described previously ([20]). HCT-8 cells were grown to >95% confluence in 384-well plates. Increasing concentrations of compounds were added, and assay plates were incubated at 37°C under 5% CO2 for 48 h. The corner wells of each plate were trypsinized to remove cells and were used as blanks for measuring absorbance at 490 nm. Cell proliferation was measured using the CellTiter AQueous assay kit (Promega, USA) according to the manufacturer's instructions and was expressed as the percentage of proliferation with the vehicle control (DMSO). GraphPad Prism software, version 6.01, was used to plot graphs and calculate the concentration that inhibits 50% of host cell proliferation relative to that with the DMSO control (50% toxic concentration [TC50]). A selectivity index (SI) was calculated as the ratio of the […]."}, "[2]": {"system": "C. parvum Iowa isolate", "test": "Immunofluorescence assay for C. parvum growth inhibition in HCT-8 cells", "type": "cell-based, Cryptosporidium parvum", "settings": "Cryptosporidium parvum, inside HCT-8 cells, 48 h incubation", "protocol": "Inhibition of C. parvum growth was measured as described previously ([20]). Oocysts were excysted by treatment with 10 mM hydrochloric acid (10 min at 37°C), followed by exposure to 2 mM sodium taurocholate (Sigma-Aldrich) in PBS for 10 min at 16°C. Excysted oocysts were then added to >95% confluent HCT-8 cell monolayers in 384-well plates at a concentration of 5,500 Iowa isolate oocysts per well. For C. parvum field isolates, the inoculum required to yield an infection level similar to that produced by 5,500 Iowa isolate oocysts per well was determined and was used for subsequent assays of parasite inhibition. Compounds were added just before or 3 h after infection, and assay plates were incubated for 48 h postinfection at 37°C under 5% CO2. Wells were then washed three times with PBS containing 111 mM D-galactose, fixed with 4% paraformaldehyde in PBS for 15 min at room temperature, permeabilized with 0.25% Triton X-100 for 10 min at 37°C, washed three times with PBS with 0.1% Tween 20, and blocked with 4% bovine serum albumin (BSA) in PBS for 2 h at 37°C or 4°C overnight. Parasitophorous vacuoles were stained with 1.33 μg/ml of fluorescein-labeled Vicia villosa lectin (Vector Laboratories) diluted in 1% BSA in PBS with 0.1% Tween 20 for 1 h at 37°C, followed by the addition of Hoechst 33258 (AnaSpec) at a final concentration of 0.09 mM diluted in water for another 15 min at 37°C. Wells were then washed five times with PBS containing 0.1% Tween 20. A Nikon Eclipse TE2000 epifluorescence microscope with an automated stage was programmed using NIS-Elements Advanced Research software (Nikon, USA) to focus on the center of each well and take a 3-by-3 composite image using an EXi Blue fluorescence microscopy camera (QImaging, Canada) with a 20× objective (numerical aperture, 0.45). Nucleus and parasite images were exported separately as .tif files and were analyzed using macros developed on the ImageJ platform (National Institutes of Health) ([20]). The only modification from the published macro used to count parasites was that the lower size threshold for parasites was decreased from 16.5 to 4 pixels (1 pixel = 0.65 μm). Graphs were plotted, and half-maximal effective concentration (EC50) and 90% effective concentration (EC90) values were calculated using GraphPad Prism software, version 6.01. For every C. parvum field isolate experiment, a dose-response experiment against the C. parvum Iowa isolate was performed simultaneously as a reference."}}}
{"smiles": "O=C(Nc1ccc(Cl)cc1)N1CCN(c2ccc3nncn3n2)CC1", "note": "[MMV665917, Clc1ccc(NC(=O)N2CCN(CC2)c3ccc4nncn4n3)cc1]", "values": [{"measurement": "TC50, host HCT-8 cell toxicity", "setting": "[1]; 48 h, CellTiter AQueous", "value": "> 100", "unit": "µM"}, {"measurement": "selectivity index (SI)", "setting": "[1]; HCT-8 TC50 versus C. parvum EC50", "value": "> 47"}, {"measurement": "toxic effect on host HCT-8 cell proliferation", "setting": "[1]; concentrations as high as 100 μM", "value": "no toxic effect"}, {"measurement": "EC50", "setting": "[2]; Fig. 1, read-out: EC50, anti-C. parvum dose response", "value": 2.1, "unit": "µM"}, {"measurement": "EC90", "setting": "[2]; Fig. 1B, read-out: EC90, anti-C. parvum dose response", "value": 5.1, "unit": "µM"}]}
